Test results reported in ChEMBL document CHEMBL3879915, “Methods of inhibiting PRMT5” (2014).

Columns and labels:
[1] = target: PRMT5/MEP50 complex (Homo sapiens, UniProt O14744); experiment: Inhibition of recombinant human fetal brain FLAG-tagged PRMT5/full length human testis 6His-tagged MEP50 expressed in baculovirus infected insect Sf9 cells using human histone H4 (1 to 15 residues) as substrate preincubated for 30 mins followed by [3H]-SAM addition
[2] = target: Protein arginine N-methyltransferase 5 (Homo sapiens, UniProt O14744); experiment: Inhibition of PRMT5 in human Z138 cells assessed as decrease in di-methyl arginine levels after 96 hrs by Western blot method; type: cell-based
Chain of Protein arginine N-methyltransferase 5 (O14744 whole entry): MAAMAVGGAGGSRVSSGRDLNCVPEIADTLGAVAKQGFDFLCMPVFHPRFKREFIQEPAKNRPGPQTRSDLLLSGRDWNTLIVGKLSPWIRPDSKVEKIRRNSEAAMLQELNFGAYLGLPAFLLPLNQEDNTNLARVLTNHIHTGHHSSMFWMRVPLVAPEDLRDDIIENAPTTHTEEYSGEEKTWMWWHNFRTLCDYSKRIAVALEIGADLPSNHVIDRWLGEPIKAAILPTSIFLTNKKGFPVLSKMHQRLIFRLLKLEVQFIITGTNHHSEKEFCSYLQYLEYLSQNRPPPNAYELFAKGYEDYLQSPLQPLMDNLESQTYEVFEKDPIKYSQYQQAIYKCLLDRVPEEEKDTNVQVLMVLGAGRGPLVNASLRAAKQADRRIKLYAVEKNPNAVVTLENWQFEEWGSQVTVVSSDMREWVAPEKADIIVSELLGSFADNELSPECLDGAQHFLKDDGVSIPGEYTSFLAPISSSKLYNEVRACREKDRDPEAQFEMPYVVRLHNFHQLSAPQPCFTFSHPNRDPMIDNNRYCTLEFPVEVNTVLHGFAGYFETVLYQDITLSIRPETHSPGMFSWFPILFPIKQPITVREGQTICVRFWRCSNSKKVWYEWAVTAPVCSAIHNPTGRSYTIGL

[3] = Antiproliferative activity against human Z138 cells assessed as inhibition of cell viability after 5 days by Cell-Titer Glo assay; type: functional, cell-based; settings: Z-138, 120 h

Chain of PRMT5/MEP50 complex (O14744 whole entry, the tested form may be a part): as the sequence (O14744 whole entry) above
Chain of PRMT5/MEP50 complex (Q9BQA1 whole entry, further chain, the tested form may be a part): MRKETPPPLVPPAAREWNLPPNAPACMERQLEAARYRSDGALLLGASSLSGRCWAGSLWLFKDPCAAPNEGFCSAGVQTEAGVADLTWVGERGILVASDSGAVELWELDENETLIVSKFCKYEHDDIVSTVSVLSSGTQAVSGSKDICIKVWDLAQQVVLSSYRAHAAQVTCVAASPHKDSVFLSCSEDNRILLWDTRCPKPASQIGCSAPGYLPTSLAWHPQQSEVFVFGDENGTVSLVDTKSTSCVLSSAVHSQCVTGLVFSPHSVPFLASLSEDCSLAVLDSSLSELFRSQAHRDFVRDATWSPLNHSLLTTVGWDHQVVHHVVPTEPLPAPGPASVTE

Compound | IC50 [1] [nM] | EC50 [2] [nM] | EC50 [3] [nM]
CC(=O)N(CC(O)CN1CCc2ccccc2C1)c1cccc(-c2ccc3ncn(C)c3c2)c1 (stereo unspecified) | < 100 | 101 to 1000 | 10000 to 40000
O=C(Cn1cnc2ccc(-c3cccc(OCC(O)CN4CCc5ccccc5C4)c3)cc21)N1CCCC1 (stereo unspecified) | 101 to 1000 | 101 to 1000 | 10000 to 40000
Cn1cnc2cc(-c3cc(NCC(O)CN4CCc5ccccc5C4)n[nH]3)ccc21 (stereo unspecified) | 101 to 1000 | 101 to 1000 | 1000 to 10000
Cn1cc2ccc(-c3ccnc(NCC(O)CN4CCc5ccccc5C4)c3)cc2n1 (stereo unspecified) | < 100 | 101 to 1000 | 1000 to 10000
O=C(Cn1ccc2cnc(-c3ccnc(NCC(O)CN4CCc5ccccc5C4)c3)nc21)N1CCOCC1 (stereo unspecified) | < 100 | < 100 | 101 to 1000
OC(COc1cccc(-c2ncc3ccn(C4CCNCC4)c3n2)c1)CN1CCc2ccccc2C1 (stereo unspecified) | < 100 | 101 to 1000 | 1000 to 10000
O=C(Cn1cnc2ccc(-c3cccc(OCC(O)CN4CCc5ccccc5C4)c3)cc21)N1CCOCC1 (stereo unspecified) | 101 to 1000 | 1000 to 10000 | 1000 to 10000
CN1CCC(n2cnc3ccc(-c4cccc(OCC(O)CN5CCc6ccccc6C5)c4)cc32)CC1 (stereo unspecified) | < 100 | 101 to 1000 | 1000 to 10000
CN1CCN(C(=O)Cn2cnc3ccc(-c4cccc(OCC(O)CN5CCc6ccccc6C5)c4)cc32)CC1 (stereo unspecified) | 101 to 1000 | 101 to 1000 | 10000 to 40000
OC(COc1cccc(-c2ccc3ncn(C4COC4)c3c2)c1)CN1CCc2ccccc2C1 (stereo unspecified) | < 100 | 101 to 1000 | 10000 to 40000
O=C(Cn1ccc2cnc(-c3ccnc(NCC(O)CN4CCc5ccccc5C4)c3)nc21)N1CCCC1 (stereo unspecified) | < 100 | < 100 | 1000 to 10000
Cc1cn(C)c2cc(-c3cccc(OCC(O)CN4CCc5ccccc5C4)c3)ccc12 (stereo unspecified) | 101 to 1000 | 1000 to 10000 | > 20000
OC(CNc1cc(-c2ncc3ccn(C4CCNCC4)c3n2)ccn1)CN1CCc2ccccc2C1 (stereo unspecified) | < 100 | < 100 | 101 to 1000
OC(CNc1cc(-c2ccc3ncn(C4CCOCC4)c3c2)ccn1)CN1CCc2ccccc2C1 (stereo unspecified) | < 100 | 101 to 1000 | 1000 to 10000
CNC(=O)c1cccc(-c2cccc(OCC(O)CN3CCc4ccccc4C3)c2)c1 (stereo unspecified) | 101 to 1000 | 1000 to 10000 | > 20000
CN1CCC(n2cnc3ccc(-c4ccnc(NCC(O)CN5CCc6ccccc6C5)c4)cc32)CC1 (stereo unspecified) | < 100 | 101 to 1000 | 1000 to 10000

Compound | IC50 [1] [nM] | EC50 [2] [nM] | EC50 [3] [nM]
Cn1ccc2cnc(-c3ccnc(NCC(O)CN4CCc5ccccc5C4)c3)nc21 (stereo unspecified) | < 100 | < 100 | 1000 to 10000
OC(CNc1cc(-c2ncc3ccn(C4CNC4)c3n2)ccn1)CN1CCc2ccccc2C1 (stereo unspecified) | < 100 | 101 to 1000 | 1000 to 10000
OC(COc1cccc(-c2ccc3ncn(C4CCNC4)c3c2)c1)CN1CCc2ccccc2C1 (stereo unspecified) | < 100 | 101 to 1000 | 1000 to 10000
CC(=O)N1CCC(n2cnc3ccc(-c4ccnc(NCC(O)CN5CCc6ccccc6C5)c4)cc32)CC1 (stereo unspecified) | 101 to 1000 | 101 to 1000 | 1000 to 10000
OC(CNc1cc(-c2ccc3ncn(C4CCNCC4)c3c2)ccn1)CN1CCc2ccccc2C1 (stereo unspecified) | < 100 | 101 to 1000 | 1000 to 10000
Cn1cc2ccc(-c3cc(NCC(O)CN4CCc5ccccc5C4)ncn3)cc2n1 (stereo unspecified) | 101 to 1000 | 101 to 1000 | > 20000
CC(=O)N1CCC(n2ccc3cnc(-c4cccc(OCC(O)CN5CCc6ccccc6C5)c4)nc32)CC1 (stereo unspecified) | 101 to 1000 | 101 to 1000 | 1000 to 10000
OC(COc1cccc(-c2ccc3ncoc3c2)c1)CN1CCc2ccccc2C1 (stereo unspecified) | 101 to 1000 | 1000 to 10000 | 10000 to 40000
OC(COc1cccc(-c2cccc3[nH]cnc23)c1)CN1CCc2ccccc2C1 (stereo unspecified) | < 100 | 101 to 1000 | 10000 to 40000
OC(COc1cccc(-c2cc(OC(F)(F)F)ccc2Cl)c1)CN1CCc2ccccc2C1 (stereo unspecified) | 101 to 1000 | 10000 to 40000 | > 20000
Cn1ncc2ccc(-c3ccnc(NCC(O)CN4CCc5ccccc5C4)c3)cc21 (stereo unspecified) | < 100 | 101 to 1000 | 1000 to 10000
Cn1cnc2ccc(-c3cc(NCC(O)CN4CCc5ccccc5C4)ccn3)cc21 (stereo unspecified) | 101 to 1000 | 1000 to 10000 | 10000 to 40000
Cn1cnc2ccc(-c3cncc(NCC(O)CN4CCc5ccccc5C4)c3)cc21 (stereo unspecified) | < 100 | < 100 | 1000 to 10000
Cn1cnc2ccc(-c3ccnc(NC[C@@H](O)CN4CCc5ccccc5C4)c3)cc21 | 101 to 1000 | 1000 to 10000 | 1000 to 10000
Cn1cnc2ccc(-c3cccc(OCC(O)CN4CCc5ccccc5C4)c3)nc21 (stereo unspecified) | < 100 | 101 to 1000 | 101 to 1000
CN1CC(n2cnc3ccc(-c4cccc(OCC(O)CN5CCc6ccccc6C5)c4)cc32)C1 (stereo unspecified) | < 100 | 101 to 1000 | 1000 to 10000
